Data: patent US20090196912A1, “Pyridinylamines” (GPC Botech AG, priority 2004, published 2009)

How the values were obtained:
Test in all cases: Generic kinase assay (33P-ATP, Myelin Basic Protein)
Type in all cases: biochemical
EGFR = EGFR (Homo sapiens, UniProt P00533); settings: class symbol: % inhibition at 10 μM or IC50
Method: (§1) In order to determine the inhibitory effect of the compounds of the subject invention on various target enzymes a generic kinase assay was established.
(§2) Reactions were performed in 96-Well U-bottom microtiter plates (Greiner Bio-One; Frickenhausen/Germany, Cat. No. 650161), hereinafter designated “Assay Plates”. 10 μl of a solution comprising 40 μM Myelin Basic Protein (Invitrogen; Carlsbad, Calif./USA; Cat. No. 13228-010) and 4 μM ATP in three-fold concentrated Reaction Buffer (60 mM Tris-HCl, pH 7.5; 30 mM MgCl2; 3 mM dithiothreitol) were added into each well of the Assay Plate. 10 μl of serial dilutions of the compounds of the subject invention, dissolved in 4% DMSO, were then added into each well, except for Positive Control. Wells (C+ wells) and Negative Control Wells (C− wells). 10 μl of 4% DMSO without compounds were added to C+ and C− wells. 10 μl of a 500 mM solution of EDTA in water was then added to C− wells. Then 10 μl of a solution containing 50 μCi/ml Adenosine 5′-[γ-^33P]triphosphate in water was added to each well. To start the reaction 10 μl of the kinase to be assayed was added to each well. The optimal amount of kinase in the assay was determined to be the amount which yields to a turn-over of about 10% of ATP. Assay Plates were incubated for one hour at room temperature. Then 10 μl of a 500 mM solution of EDTA in water was added to each well except C− wells. Samples were now ready for measurement.
(§3) Measurements were preformed in 96-Well MAPH-Filter Plates (Millipore; Billerica, Mass./United States; Cat. No. MAPHNOB50), hereinafter designated “Measurement Plates”. Measurement Plates were washed with 200 μl of a 0.75% H3PO4 solution per well. The H3PO4 solution was exhausted using a Millipore vacuum station. 60 μl of a 0.75% H3PO4 solution was then added into each well, followed by the transfer of 30 μl of each well from the Assay Plate into the corresponding wells of the Measurement Plate. The Measurement Plate was incubated for 30 minutes at room temperature. Thereafter each well was washed three times with 200 μl of a 0.75% H3PO4 solution using a Millipore vacuum station. 20 μl of scintillation liquid (Supermix Liquid Szintillator; Perkin Elmer, Wellesley. Mass./United States; Cat. No. 1200-439) was then added to each well of the Measurement Plate. The plate was sealed and stored for 30 minutes in the darkness before radioactivity was quantified in a MicroBeta Scintillation Counter (Perkin Elmer, Wellesley. Mass./United States).

CDK5/p35 = CDK5/p35 (Homo sapiens, UniProt Q00535); settings: class symbol: % inhibition at 10 μM or IC50
Method: as §1, §2, §3

PDGFR = settings: class symbol: % inhibition at 10 μM or IC50
Method: as §1, §2, §3

RICK = RICK (Homo sapiens, UniProt O43353); settings: class symbol: % inhibition at 10 μM or IC50; for inhibition at 10 µM: 1 h, read-out: Inhibitory effect on target RICK
Sequence of RICK (O43353 whole entry, species assumed): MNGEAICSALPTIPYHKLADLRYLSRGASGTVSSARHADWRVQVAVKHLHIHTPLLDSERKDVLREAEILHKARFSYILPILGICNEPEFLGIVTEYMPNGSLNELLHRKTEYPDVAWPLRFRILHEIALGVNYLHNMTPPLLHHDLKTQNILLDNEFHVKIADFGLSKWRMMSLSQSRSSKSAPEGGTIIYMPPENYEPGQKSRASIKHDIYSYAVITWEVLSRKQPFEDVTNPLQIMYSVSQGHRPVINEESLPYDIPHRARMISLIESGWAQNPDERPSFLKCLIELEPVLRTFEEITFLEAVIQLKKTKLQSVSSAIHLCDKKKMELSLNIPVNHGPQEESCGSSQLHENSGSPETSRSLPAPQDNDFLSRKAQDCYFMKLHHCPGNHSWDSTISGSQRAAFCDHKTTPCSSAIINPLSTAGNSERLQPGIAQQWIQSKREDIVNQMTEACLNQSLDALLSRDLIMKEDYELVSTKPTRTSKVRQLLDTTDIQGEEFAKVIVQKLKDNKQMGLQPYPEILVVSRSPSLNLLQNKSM
Method: as §1, §2, §3

CDK1/CyclinB = CDK1/CyclinB (Homo sapiens, UniProt P06493); settings: class symbol: % inhibition at 10 μM or IC50
Sequence of CDK1/CyclinB (P06493 whole entry, species assumed): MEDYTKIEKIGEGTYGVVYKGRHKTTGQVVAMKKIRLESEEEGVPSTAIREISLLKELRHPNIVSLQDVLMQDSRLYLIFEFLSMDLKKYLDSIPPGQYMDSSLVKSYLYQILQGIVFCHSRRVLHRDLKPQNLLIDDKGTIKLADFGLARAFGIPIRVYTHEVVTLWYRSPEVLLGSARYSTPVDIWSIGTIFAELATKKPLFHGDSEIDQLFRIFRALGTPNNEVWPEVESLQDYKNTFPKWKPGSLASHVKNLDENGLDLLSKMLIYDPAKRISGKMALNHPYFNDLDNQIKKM
Sequence of CDK1/CyclinB (P14635 whole entry partner, species assumed): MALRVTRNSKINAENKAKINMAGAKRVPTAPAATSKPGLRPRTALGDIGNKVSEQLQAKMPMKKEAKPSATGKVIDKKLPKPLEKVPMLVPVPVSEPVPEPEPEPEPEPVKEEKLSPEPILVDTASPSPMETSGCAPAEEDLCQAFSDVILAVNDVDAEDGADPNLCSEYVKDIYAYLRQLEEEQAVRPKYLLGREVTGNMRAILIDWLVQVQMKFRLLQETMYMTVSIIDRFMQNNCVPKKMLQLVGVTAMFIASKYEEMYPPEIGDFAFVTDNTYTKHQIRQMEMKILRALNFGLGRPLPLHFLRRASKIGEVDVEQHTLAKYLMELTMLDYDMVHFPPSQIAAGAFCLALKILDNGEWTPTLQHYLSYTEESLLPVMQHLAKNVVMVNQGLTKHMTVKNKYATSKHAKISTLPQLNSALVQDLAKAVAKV
Method: as §1, §2, §3

p56Lck = p56Lck (Homo sapiens, UniProt P06239); settings: 1 h; class symbol: % inhibition at 10 μM or IC50; read-out: Inhibitory effect on target p56Lck
Sequence of p56Lck (P06239 whole entry, species assumed): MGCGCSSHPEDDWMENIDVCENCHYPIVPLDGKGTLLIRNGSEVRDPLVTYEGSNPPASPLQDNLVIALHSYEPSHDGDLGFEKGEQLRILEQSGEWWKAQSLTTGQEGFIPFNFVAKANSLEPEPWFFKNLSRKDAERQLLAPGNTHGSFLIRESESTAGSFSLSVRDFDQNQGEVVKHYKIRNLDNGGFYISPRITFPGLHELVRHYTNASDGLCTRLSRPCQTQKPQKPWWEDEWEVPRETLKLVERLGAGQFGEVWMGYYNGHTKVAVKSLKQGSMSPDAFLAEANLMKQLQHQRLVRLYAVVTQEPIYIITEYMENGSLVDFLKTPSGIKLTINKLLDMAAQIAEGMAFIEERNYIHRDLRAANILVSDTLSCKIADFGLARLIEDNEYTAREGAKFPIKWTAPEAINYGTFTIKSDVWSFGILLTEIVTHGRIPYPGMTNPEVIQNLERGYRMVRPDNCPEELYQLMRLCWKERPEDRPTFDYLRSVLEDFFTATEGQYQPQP
Method: as §1, §2, §3

Abl = Abl (Homo sapiens, UniProt P00519); settings: 1 h; class symbol: % inhibition at 10 μM or IC50; read-out: Inhibitory effect on target Abl
Method: as §1, §2, §3

c-kit = c-kit (Homo sapiens, UniProt P10721); settings: 1 h; class symbol: % inhibition at 10 μM or IC50; read-out: Inhibitory effect on target c-kit
Method: as §1, §2, §3

c-Src = c-Src (Homo sapiens, UniProt P12931); settings: class symbol: % inhibition at 10 μM or IC50
Method: as §1, §2, §3

cRaf = cRaf (Homo sapiens, UniProt P04049); settings: 1 h; class symbol: % inhibition at 10 μM or IC50; read-out: Inhibitory effect on target cRaf
Sequence of cRaf (P04049 whole entry, species assumed): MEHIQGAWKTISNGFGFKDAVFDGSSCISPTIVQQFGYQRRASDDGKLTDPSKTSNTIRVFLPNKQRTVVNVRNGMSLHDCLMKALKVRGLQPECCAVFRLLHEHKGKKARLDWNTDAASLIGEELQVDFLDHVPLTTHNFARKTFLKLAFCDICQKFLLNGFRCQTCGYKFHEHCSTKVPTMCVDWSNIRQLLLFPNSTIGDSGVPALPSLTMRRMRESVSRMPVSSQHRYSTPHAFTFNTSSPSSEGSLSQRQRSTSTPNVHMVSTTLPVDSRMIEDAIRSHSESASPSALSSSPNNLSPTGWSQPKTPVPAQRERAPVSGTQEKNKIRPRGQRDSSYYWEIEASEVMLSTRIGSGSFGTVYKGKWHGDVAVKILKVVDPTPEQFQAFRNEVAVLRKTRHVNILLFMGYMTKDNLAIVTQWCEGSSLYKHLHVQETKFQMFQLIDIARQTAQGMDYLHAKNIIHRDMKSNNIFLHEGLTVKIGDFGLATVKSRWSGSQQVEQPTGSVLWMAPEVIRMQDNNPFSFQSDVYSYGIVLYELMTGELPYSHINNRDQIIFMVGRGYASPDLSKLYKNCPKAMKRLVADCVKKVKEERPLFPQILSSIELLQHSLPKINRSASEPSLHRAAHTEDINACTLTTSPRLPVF
Method: as §1, §2, §3

ROCK 2 = ROCK 2 (Homo sapiens, UniProt O75116); settings: class symbol: % inhibition at 10 μM or IC50; for inhibition at 10 µM: 1 h, read-out: Inhibitory effect on target ROCK 2
Sequence of ROCK 2 (O75116 whole entry, species assumed): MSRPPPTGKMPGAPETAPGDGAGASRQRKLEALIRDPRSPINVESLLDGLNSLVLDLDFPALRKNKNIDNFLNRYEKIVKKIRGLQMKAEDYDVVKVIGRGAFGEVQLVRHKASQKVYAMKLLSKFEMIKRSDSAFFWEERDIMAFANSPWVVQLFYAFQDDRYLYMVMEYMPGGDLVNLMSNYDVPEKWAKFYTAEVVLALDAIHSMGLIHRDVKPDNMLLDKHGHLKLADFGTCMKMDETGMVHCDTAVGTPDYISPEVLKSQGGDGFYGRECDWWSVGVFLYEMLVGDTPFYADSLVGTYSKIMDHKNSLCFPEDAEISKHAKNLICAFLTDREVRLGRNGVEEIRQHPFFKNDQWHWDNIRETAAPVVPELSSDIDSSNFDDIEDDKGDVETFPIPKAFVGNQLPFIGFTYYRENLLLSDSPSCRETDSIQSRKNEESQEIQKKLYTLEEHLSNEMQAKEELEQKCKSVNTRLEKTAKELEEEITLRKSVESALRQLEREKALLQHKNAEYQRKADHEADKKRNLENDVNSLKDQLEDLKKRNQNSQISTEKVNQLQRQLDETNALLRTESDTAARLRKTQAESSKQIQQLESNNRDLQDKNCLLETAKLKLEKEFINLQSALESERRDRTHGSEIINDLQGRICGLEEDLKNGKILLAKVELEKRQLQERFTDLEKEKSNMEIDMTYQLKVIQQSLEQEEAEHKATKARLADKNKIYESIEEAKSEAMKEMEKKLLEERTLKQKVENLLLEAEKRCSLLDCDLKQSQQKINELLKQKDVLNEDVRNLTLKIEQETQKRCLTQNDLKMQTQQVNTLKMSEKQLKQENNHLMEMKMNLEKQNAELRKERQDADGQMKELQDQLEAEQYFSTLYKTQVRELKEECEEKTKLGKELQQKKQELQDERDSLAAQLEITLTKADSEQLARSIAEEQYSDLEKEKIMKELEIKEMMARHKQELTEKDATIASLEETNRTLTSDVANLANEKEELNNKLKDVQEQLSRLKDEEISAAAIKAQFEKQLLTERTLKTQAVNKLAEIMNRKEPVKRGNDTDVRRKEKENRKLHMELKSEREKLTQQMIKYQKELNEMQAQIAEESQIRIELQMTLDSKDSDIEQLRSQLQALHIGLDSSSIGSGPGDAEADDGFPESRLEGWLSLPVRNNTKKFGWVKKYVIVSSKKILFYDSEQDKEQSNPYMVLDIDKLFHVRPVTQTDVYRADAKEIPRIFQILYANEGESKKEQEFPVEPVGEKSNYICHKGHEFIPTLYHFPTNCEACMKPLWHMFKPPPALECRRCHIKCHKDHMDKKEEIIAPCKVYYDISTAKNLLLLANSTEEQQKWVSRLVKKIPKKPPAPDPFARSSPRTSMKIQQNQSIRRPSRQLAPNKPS
Method: as §1, §2, §3

CDK2/CyclinA = CDK2/CyclinA (Homo sapiens, UniProt P24941); settings: class symbol: % inhibition at 10 μM or IC50
Method: as §1, §2, §3

Sequence of EGFR (P00533 25-1210, species assumed): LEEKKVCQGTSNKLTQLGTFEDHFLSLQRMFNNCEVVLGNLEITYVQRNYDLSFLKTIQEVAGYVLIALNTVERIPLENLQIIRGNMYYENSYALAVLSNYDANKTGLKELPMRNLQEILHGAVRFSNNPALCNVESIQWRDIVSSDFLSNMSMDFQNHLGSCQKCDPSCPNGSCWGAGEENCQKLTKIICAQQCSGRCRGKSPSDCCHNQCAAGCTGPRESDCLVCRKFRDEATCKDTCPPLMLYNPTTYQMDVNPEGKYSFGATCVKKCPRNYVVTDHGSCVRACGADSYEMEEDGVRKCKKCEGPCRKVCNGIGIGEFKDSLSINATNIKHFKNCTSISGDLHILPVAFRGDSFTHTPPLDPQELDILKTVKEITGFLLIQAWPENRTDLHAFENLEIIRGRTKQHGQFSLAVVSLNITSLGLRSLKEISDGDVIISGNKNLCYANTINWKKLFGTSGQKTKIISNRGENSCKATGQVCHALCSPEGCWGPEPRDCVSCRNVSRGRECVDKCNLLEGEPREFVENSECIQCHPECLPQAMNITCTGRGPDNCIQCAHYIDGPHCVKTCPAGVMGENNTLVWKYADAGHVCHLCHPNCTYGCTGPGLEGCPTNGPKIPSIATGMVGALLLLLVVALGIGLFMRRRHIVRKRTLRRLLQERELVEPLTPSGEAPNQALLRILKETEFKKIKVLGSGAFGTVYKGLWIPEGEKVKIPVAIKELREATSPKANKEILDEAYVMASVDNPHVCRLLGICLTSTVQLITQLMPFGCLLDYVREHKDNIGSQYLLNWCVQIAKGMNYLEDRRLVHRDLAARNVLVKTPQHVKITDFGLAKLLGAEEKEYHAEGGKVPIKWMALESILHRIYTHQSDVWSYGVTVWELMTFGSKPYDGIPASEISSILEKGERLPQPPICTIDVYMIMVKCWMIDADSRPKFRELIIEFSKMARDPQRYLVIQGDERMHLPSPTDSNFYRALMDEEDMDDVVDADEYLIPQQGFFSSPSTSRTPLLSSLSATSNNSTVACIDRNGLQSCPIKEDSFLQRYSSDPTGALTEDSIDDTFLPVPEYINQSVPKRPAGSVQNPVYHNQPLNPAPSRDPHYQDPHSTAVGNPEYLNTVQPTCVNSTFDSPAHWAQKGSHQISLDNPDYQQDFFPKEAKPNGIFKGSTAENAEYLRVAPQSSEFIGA

| Compound | Inhibitory effect on target EGFR (EGFR) | Inhibitory effect on target CDK5/p35 (CDK5/p35) | Inhibitory effect on target PDGFR (PDGFR) | Inhibitory effect on target RICK (RICK) | Inhibitory effect on target CDK1/CyclinB (CDK1/CyclinB) | inhibition at 10 µM (p56Lck) | inhibition at 10 µM (Abl) | inhibition at 10 µM (c-kit) | Inhibitory effect on target c-Src (c-Src) | inhibition at 10 µM (cRaf) | inhibition at 10 µM (ROCK 2) | Inhibitory effect on target CDK2/CyclinA (CDK2/CyclinA) | inhibition at 10 µM (RICK) | Inhibitory effect on target ROCK 2 (ROCK 2) |
| --- | --- | --- | --- | --- | --- | --- | --- | --- | --- | --- | --- | --- | --- | --- |
| Oc1cccc(CNc2cncc(-c3cccc(O)c3F)c2)c1 [Compound 231, 2-Fluoro-3-[5-(3-hydroxy-benzylamino)-pyridin-3-yl]-phenol] | A (A: 50-90% inhibition at 10 μM enzyme concentration) | A (A: 50-90% inhibition at 10 μM enzyme concentration) | A (A: 50-90% inhibition at 10 μM enzyme concentration) | C (C: IC50 measured: <1 μM) | A (A: 50-90% inhibition at 10 μM enzyme concentration) | 50 to 90% | 50 to 90% | 50 to 90% | B (B: >90% inhibition at 10 μM enzyme concentration) | 50 to 90% | – | – | – | – |
| COC(=O)c1cccc(-c2cncc(NCc3cccc(O)c3)c2)c1 [Compound 243, 3-[5-(3-Hydroxy-benzylamino)-pyridin-3-yl]-benzoic acid methyl ester] | – | – | – | C (C: IC50 measured: <1 μM) | – | > 90% | 50 to 90% | 50 to 90% | – | 50 to 90% | 50 to 90% | B (B: >90% inhibition at 10 μM enzyme concentration) | – | – |
| Cc1ccc(CNc2cncc(-c3cccc(O)c3)c2)cc1O [Compound 247, 5-{[5-(3-Hydroxy-phenyl)-pyridin-3-ylamino]-methyl}-2-methyl-phenol] | A (A: 50-90% inhibition at 10 μM enzyme concentration) | – | A (A: 50-90% inhibition at 10 μM enzyme concentration) | C (C: IC50 measured: <1 μM) | – | – | – | 50 to 90% | – | – | 50 to 90% | – | – | – |
| Oc1cccc(CNc2cncc(-c3cccc(O)c3)c2)c1 [Compound 225, 3-{5-[(3-Hydroxybenzyl)amino]pyridin-3-yl}phenol] | A (A: 50-90% inhibition at 10 μM enzyme concentration) | – | A (A: 50-90% inhibition at 10 μM enzyme concentration) | C (C: IC50 measured: <1 μM) | – | > 90% | 50 to 90% | > 90% | – | 50 to 90% | 50 to 90% | – | – | – |
| CC(=O)Nc1cccc(-c2cncc(Nc3ccc(F)cc3)c2)c1 [Compound 235, N-{3-[5-(4-Fluoro-phenylamino)-pyridin-3-yl]-phenyl}-acetamide] | A (A: 50-90% inhibition at 10 μM enzyme concentration) | – | A (A: 50-90% inhibition at 10 μM enzyme concentration) | C (C: IC50 measured: <1 μM) | A (A: 50-90% inhibition at 10 μM enzyme concentration) | – | – | – | – | – | – | – | – | – |
| COc1ccccc1Nc1cncc(-c2cccc(NC(C)=O)c2)c1 [Compound 240, N-{3-[5-(2-Methoxy-phenylamino)-pyridin-3-yl]-phenyl}-acetamide] | – | – | A (A: 50-90% inhibition at 10 μM enzyme concentration) | C (C: IC50 measured: <1 μM) | A (A: 50-90% inhibition at 10 μM enzyme concentration) | 50 to 90% | – | – | – | – | – | – | – | – |
| Oc1ccc(-c2cncc(NCc3ccc(F)c(F)c3)c2)cc1 [Compound 127, 4-[5-(3,4-Difluoro-benzylamino)-pyridin-3-yl]-phenol] | – | – | – | – | – | – | – | – | – | – | 50 to 90% | – | 50 to 90% | – |
| O=C(O)c1cccc(-c2cncc(NCc3cccc(O)c3)c2)c1 [Compound 246, 3-[5-(3-Hydroxy-benzylamino)-pyridin-3-yl]-benzoic acid] | A (A: 50-90% inhibition at 10 μM enzyme concentration) | – | A (A: 50-90% inhibition at 10 μM enzyme concentration) | C (C: IC50 measured: <1 μM) | – | 50 to 90% | 50 to 90% | 50 to 90% | – | > 90% | – | – | – | – |
| COc1cccc(-c2cncc(NCc3cccc(O)c3)c2)c1F [Compound 236, 3-{[5-(2-Fluoro-3-methoxy-phenyl)-pyridin-3-ylamino]-methyl}-phenol] | A (A: 50-90% inhibition at 10 μM enzyme concentration) | – | A (A: 50-90% inhibition at 10 μM enzyme concentration) | C (C: IC50 measured: <1 μM) | A (A: 50-90% inhibition at 10 μM enzyme concentration) | 50 to 90% | 50 to 90% | > 90% | A (A: 50-90% inhibition at 10 μM enzyme concentration) | 50 to 90% | – | – | – | – |
| Oc1ccc(-c2cncc(NCc3ccc4c(c3)OCO4)c2)cc1 [Compound 126, 4-{5-[(Benzo[1,3]dioxol-5-ylmethyl)-amino]-pyridin-3-yl}-phenol] | – | – | – | – | – | – | – | – | – | – | 50 to 90% | – | 50 to 90% | – |
| OCc1ccc(-c2cncc(NCc3cccc(O)c3)c2)cc1 [Compound 229, 3-{[5-(4-Hydroxymethyl-phenyl)-pyridin-3-ylamino]-methyl}-phenol] | A (A: 50-90% inhibition at 10 μM enzyme concentration) | – | A (A: 50-90% inhibition at 10 μM enzyme concentration) | C (C: IC50 measured: <1 μM) | – | 50 to 90% | 50 to 90% | > 90% | – | 50 to 90% | 50 to 90% | – | – | – |
| NC(=O)c1cccc(-c2cncc(NCc3cccc(O)c3)c2)c1 [Compound 230, 3-[5-(3-Hydroxy-benzylamino)-pyridin-3-yl]-benzamide] | A (A: 50-90% inhibition at 10 μM enzyme concentration) | – | – | C (C: IC50 measured: <1 μM) | – | > 90% | > 90% | > 90% | – | 50 to 90% | – | – | – | C (C: IC50 measured: <1 μM) |
| OCc1cccc(-c2cncc(NCc3cccc(O)c3)c2)c1 [Compound 216, 3-{[5-(3-Hydroxymethyl-phenyl)-pyridin-3-ylamino]-methyl}-phenol] | A (A: 50-90% inhibition at 10 μM enzyme concentration) | – | A (A: 50-90% inhibition at 10 μM enzyme concentration) | C (C: IC50 measured: <1 μM) | – | 50 to 90% | 50 to 90% | > 90% | – | 50 to 90% | – | – | – | – |
| Oc1cccc(CNc2cncc(Cc3cccc(O)c3)c2)c1 [Compound 272, (3-hydroxy-benzyl)-[5-(3-hydroxy-benzyl)-pyridin-3-yl]-amine] | – | A (A: 50-90% inhibition at 10 μM enzyme concentration) | – | – | – | – | – | – | – | – | 50 to 90% | B (B: >90% inhibition at 10 μM enzyme concentration) | – | – |
